pIC50: −log10 of the molar value. Activity calls are given as the source filed them. The rule behind the calls is not given here.

By pIC50 is commonly meant the negative decadic logarithm of the IC50, by convention in mol/L. Read a high pIC50 as a low IC50. The term Papp denotes a coefficient for how fast a substance crosses the barrier. A word on the GI50: it is the concentration that inhibits growth by half. Broadly, the inhibition is the percentage by which the read-out fell short of the control.

Series [1] deals with T1, WDR5-MYC (Homo sapiens, UniProt P61964). The series is described as follows: Inhibition of N-terminal his-tagged WDR5 (1 to 334 residues) (unknown origin)/Biotin tagged Myc (256-268 residues) (unknown origin) interaction measured after 1 hrs by HTRF assay. The class given is protein assay.
A short description of series [2]: Apparent permeability of the compound in dog MDCKII-LE cells measured upto 1.5 hrs. Format: ADME, cell-based, Canis lupus familiaris. The note with it: MDCK.
Series [3] is described as follows: Microsomal stability in mouse liver microsome assessed as intrinsic clearance. Format: ADME. The note with it: liver microsomes, read-out: CLH.
Series [4] deals with T2, WD repeat-containing protein 5 (Homo sapiens, UniProt P61964). As to the kind of experiment: Inhibition of N-terminal his-tagged WDR5 (1 to 334 residues) (unknown origin) measured after 10 mins by HTRF assay. In general terms: In TR-FRET formats the signal depends on donor and acceptor labels being close together.
The subject of another series is NCI-H520. As to the kind of experiment: Antiproliferative activity against human NCI-H520 cells assessed as cell growth inhibition measured after 72 hrs by CellTier-Glo assay. The class given is functional.
Series [5] concerns the target T2, WD repeat-containing protein 5. The series is described as follows: Inhibition of N-terminal his-tagged WDR5 (1 to 334 residues) (unknown origin) measured after 360 mins by HTRF assay.
In series [6] the test system is HL-60. As to the kind of experiment: Effect on AURKB mRNA expression in human HL-60 cells measured after 24 hrs by RT-qPCR assay. The class given is functional, cell-based. On the technique in general: In qPCR the cycle at which signal appears reflects the starting amount.
The test system of a further series is NCI-H1650. The series is described as follows: Antiproliferative activity against human NCI-H1650 cells assessed as cell growth inhibition measured after 72 hrs by CellTier-Glo assay. Format: functional.
In series [7] the target is T1, WDR5-MYC. As to the kind of experiment: Inhibition of WDR5 (unknown origin)/MYC (unknown origin) interaction. The class given is protein assay.
In series [8] the test system is HL-60. The series is described as follows: Effect on Cdc20 mRNA expression in human HL-60 cells measured after 24 hrs by RT-qPCR assay. Format: functional, cell-based.
The subject of the next series is SHP77. As to the kind of experiment: Antiproliferative activity against human SHP77 cells assessed as cell growth inhibition measured after 72 hrs by CellTier-Glo assay. Format: functional.
In series [9] the test system is HL-60. The series is described as follows: Effect on MCM10 mRNA expression in human HL-60 cells measured after 24 hrs by RT-qPCR assay. The class given is functional, cell-based.
For series [10], the system named is HL-60. As to the kind of experiment: Downregulation of RPL23 gene expression in human HL-60 cells measured after 24 hrs by RT-qPCR assay. Format: functional, cell-based. The note with it: dose 3-10 µM.
For series [11], the target named is T3, Histone-lysine N-methyltransferase 2A/WDR5 (Homo sapiens) (UniProt P61964+Q03164). As to the kind of experiment: Inhibition of WDR5 (unknown origin)/MLL (unknown origin) interaction by NanoBiT assay. Format: protein assay.
The test system of series [12] is HL-60. As to the kind of experiment: Downregulation of RPL35 gene expression in human HL-60 cells measured after 24 hrs by RT-qPCR assay. Particulars: dose 3-10 µM. Format: functional, cell-based.
Series [13] has as its target T2, WD repeat-containing protein 5. As to the kind of experiment: Inhibition of N-terminal his-tagged WDR5 (1 to 334 residues) (unknown origin) measured after 180 mins by HTRF assay.
The next series concerns Daudi. The series is described as follows: Antiproliferative activity against human Daudi cells assessed as cell growth inhibition measured after 72 hrs by CellTier-Glo assay. The class given is functional.
The subject of series [14] is HL-60. The series is described as follows: Downregulation of RPL37A gene expression in human HL-60 cells measured after 24 hrs by RT-qPCR assay. The class given is functional, cell-based. The note with it: dose 3-10 µM.
The target in series [15] is T2, WD repeat-containing protein 5. The series is described as follows: Inhibition of N-terminal his-tagged WDR5 (1 to 334 residues) (unknown origin) measured after 30 mins by HTRF assay relative to control.
Series [16] has the same target. The series is described as follows: Inhibition of N-terminal his-tagged WDR5 (1 to 334 residues) (unknown origin) measured after 360 mins by HTRF assay relative to control.
In a further series the test system is COR-L279. The series is described as follows: Antiproliferative activity against human COR-L279 cells assessed as cell growth inhibition measured after 72 hrs by CellTier-Glo assay. Format: functional.
The next series relates to NB-4. The series is described as follows: Antiproliferative activity against human NB4 cells assessed as cell growth inhibition measured after 72 hrs by CellTier-Glo assay. Format: functional.
The target in series [17] is T2, WD repeat-containing protein 5. The series is described as follows: Inhibition of N-terminal his-tagged WDR5 (1 to 334 residues) (unknown origin) measured after 180 mins by HTRF assay relative to control.
The target is the same in series [18]. As to the kind of experiment: Inhibition of N-terminal his-tagged WDR5 (1 to 334 residues) (unknown origin) measured after 90 mins by HTRF assay relative to control.
Series [19] concerns HL-60. As to the kind of experiment: Effect on MCM4 mRNA expression in human HL-60 cells measured after 24 hrs by RT-qPCR assay. The class given is functional, cell-based.
In a further series the test system is Ramos. As to the kind of experiment: Antiproliferative activity against human Ramos cells assessed as cell growth inhibition measured after 72 hrs by CellTier-Glo assay. Format: functional.
The subject of a further series is HEK293T. As to the kind of experiment: Inhibition of RBBP5/flag-tagged WDR5 interaction in HEK293T cells overexpressing flag-tagged WDR5 upto 30 uM incubated for 6 hrs by coimmunoprecipitation assay. The class given is cell-based. Particulars: Homo sapiens.
For another series, the target named is WDR5-MYC (Homo sapiens) (UniProt P61964+P01106). As to the kind of experiment: Inhibition of flag-tagged WDR5/endogenous MYC interaction in HEK293T cells overexpressing flag tagged WDR5 incubated for 6 hrs by coimmunoprecipitation assay. Format: cell-based. Particulars: dose 5-30 µM.
Series [20] has as its system HL-60. The series is described as follows: Downregulation of RPL17 gene expression in human HL-60 cells measured after 24 hrs by RT-qPCR assay. The class given is functional, cell-based. Particulars: dose 3-10 µM.
Series [21] concerns HL-60. As to the kind of experiment: Antiproliferative activity against human HL-60 cells assessed as cell growth inhibition measured after 72 hrs by CellTier-Glo assay. Format: functional.
The target of series [22] is T1, WDR5-MYC. As to the kind of experiment: Inhibition of his-tagged WDR5/flag-tagged MYC interaction overexpressed in HEK293T cells incubated for 5 hrs. The class given is cell-based.
Series [23] concerns the target T2, WD repeat-containing protein 5. As to the kind of experiment: Inhibition of N-terminal his-tagged WDR5 (1 to 334 residues) (unknown origin) measured after 90 mins by HTRF assay.
The target is the same in series [24]. The series is described as follows: Inhibition of N-terminal his-tagged WDR5 (1 to 334 residues) (unknown origin) measured after 30 mins by HTRF assay.
In series [25] the target is T3, Histone-lysine N-methyltransferase 2A/WDR5 (Homo sapiens). As to the kind of experiment: Inhibition of MLL/flag-tagged WDR5 interaction in HEK293T cells overexpressing flag-tagged WDR5 upto 30 uM incubated for 6 hrs by coimmunoprecipitation assay. Format: cell-based.
The target of series [26] is T2, WD repeat-containing protein 5. As to the kind of experiment: Inhibition of N-terminal his-tagged WDR5 (1 to 334 residues) (unknown origin) measured after 10 mins by HTRF assay relative to control.
Series [27] deals with HL-60. The series is described as follows: Downregulation of RPL17 gene expression in human HL-60 cells at 10 uM measured after 24 hrs by RT-qPCR assay. Format: functional, cell-based.
In series [28] the test system is HL-60. The series is described as follows: Downregulation of RPL35 gene expression in human HL-60 cells at 10 uM measured after 24 hrs by RT-qPCR assay. The class given is functional, cell-based.
The subject of series [29] is HL-60. As to the kind of experiment: Downregulation of RPL23 gene expression in human HL-60 cells at 10 uM measured after 24 hrs by RT-qPCR assay. The class given is functional, cell-based.
In series [30] the test system is HL-60. As to the kind of experiment: Downregulation of RPL37A gene expression in human HL-60 cells at 10 uM measured after 24 hrs by RT-qPCR assay. Format: functional, cell-based.

For the compound `Cc1cc(=O)c(C(=O)NCc2c(F)cc(N3CCOCC3)cc2F)nn1-c1ccccc1`, at WDR5-MYC [1], the negative-log IC50 (pIC50) was 5.49.

In the case of `Cc1cc(=O)c(C(=O)NCc2c(F)cc(N3CC[C@@H](O)C3)cc2F)nn1-c1ccccc1`, the pIC50 against WDR5-MYC [1] is 5.43. The pIC50 values of the last two compounds are within 0.2 log units of each other.

As for `CCCC[C@@H](Cc1c(F)cc(-c2cccc(S(=O)(=O)F)c2)cc1F)C(=O)Nc1nnn[nH]1`, the Papp at 1.5 h in [2] came out at 0.96 ×10⁻⁶ cm/s. The microsomal CLint in series [3] was 150 µL/min/mg.

Regarding `Cc1cc(=O)c(C(=O)NCc2c(F)cc(-c3cccc(S(=O)(=O)F)c3)cc2F)nn1-c1ccccc1`, the pIC50 in series [4] was 5.68; in [5], 7.00; against WDR5-MYC [7] it was 5.24; in series [13], 6.77; at WDR5-MYC [1] it was 6.41; against WDR5-MYC [22], 5.32. In addition, the results for the pIC50 in series [23] and in [24] were 6.52 and 6.10, respectively. In series [2], the apparent permeability (Papp) at 1.5 h turned out to be 1.77 ×10⁻⁶ cm/s. Further, the GI50 stood at 9.4 µM in the series on NCI-H520; 22.6 µM in the series with NCI-H1650; 16.6 µM in the series on SHP77; 15.4 µM in the series with Daudi; 4.2 µM in the series on COR-L279; 7.1 µM with NB-4. The GI50 in the series with Ramos was determined as 4.3 µM; in the series with HL-60 [21], 4.6 µM. Further, the outcome in the series on HL-60 [6], in the series with HL-60 [8], in the series with HL-60 [9] and in the series on HL-60 [19] was inactive. Also, the microsomal CLint in [3] amounted to 46.9 µL/min/mg. Besides, the Activity entry with HL-60 [10], in the series on HL-60 [12], in the series on HL-60 [14] and in the series with HL-60 [20] was “Dose-Dependent Effect” each time. The inhibition entry (in series [11]; with HEK293T; in series [25]) was “inactive” in each case. The inhibition in [15] is 64%; in series [16], 91.9%; in series [17], 88.5%; in series [18], 78.5%; on WDR5-MYC (Homo sapiens), “Dose-Dependent Effect”; in series [26], 59.3%.

On WDR5-MYC [1], `Cc1cc(=O)c(C(=O)NCc2c(F)cc(-c3ccccc3)cc2F)nn1-c1ccccc1` showed a pIC50 of 4.80.

In the case of `Cc1cc(=O)c(C(=O)N(C)Cc2c(F)cc(C3CCCOC3)cc2F)nn1-c1ccccc1` (stereo unspecified), the GI50 in the series with NCI-H520, with NCI-H1650, in the series with SHP77, with Daudi, in the series on COR-L279 and in the series with NB-4 was over 50 µM each time. For the same compound, the GI50 in the series with Ramos and in the series on HL-60 [21] was over 50 µM each time. For the same compound, the result with HL-60 [27], in the series on HL-60 [28], in the series on HL-60 [29], in the series with HL-60 [6], in the series on HL-60 [8] and with HL-60 [30] was inactive. For the same compound, the outcome in the series with HL-60 [9] and in the series on HL-60 [19] was inactive. Besides, in series [11], the inhibition result was “inactive”. Moreover, the pIC50 against WDR5-MYC [1] is 4.36.

On WDR5-MYC [1], `Cc1cc(=O)c(C(=O)NCc2c(F)cc(-c3cccnc3)cc2F)nn1-c1ccccc1` gave a negative logarithm of the IC50 (pIC50) of 5.35.

As for `Cc1cc(=O)c(C(=O)NCc2c(F)cc(N3CC[C@H](F)C3)cc2F)nn1-c1cccc(C(=O)O)c1`, the pIC50 against WDR5-MYC [1] was 6.19.

On WDR5-MYC [1], `Cc1cc(=O)c(C(=O)NCc2c(F)cc(-c3cccc(S(=O)(=O)O)c3)cc2F)nn1-c1ccccc1` gave a pIC50 of 6.04.

Take `Cc1cc(=O)c(C(=O)NCc2c(F)cc(N3CCCC(C)(C)C3)cc2F)nn1-c1ccccc1`: the pIC50 on WDR5-MYC [1] is 5.61. This pIC50 lies 0.43 log units lower than the previous one.

`Cc1cc(=O)c(C(=O)NCc2c(F)cc(-c3cccc(CO)c3)cc2F)nn1-c1ccccc1` gave a pIC50 at WDR5-MYC [1] of 5.24.

In the case of `Cc1cc(=O)c(C(=O)NCc2c(F)cc(N3CC[C@H](F)C3)cc2F)nn1-c1cccc(C(N)=O)c1`, at WDR5-MYC [1], the pIC50 was 6.02.

The compound `Cc1cc(=O)c(C(=O)NCc2c(F)cc(N3CC[C@@H](F)C3)cc2F)nn1-c1cccc(C(N)=O)c1` had a negative-log IC50 (pIC50) against WDR5-MYC [1] of 5.71.

As for `Cc1cc(=O)c(C(=O)NCc2c(F)cc(N3CC[C@@H](F)C3)cc2F)nn1-c1cccc(CC(N)=O)c1`, at WDR5-MYC [1], the pIC50 is 5.50.
